One data set addresses human BACE1 (Homo sapiens, UniProt P56817). The data set can be described thus: Fluorescent kinetic assay, inhibition of BACE1 (WABC-6 peptide substrate).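 Note: fluorescence monitored at 320 nm excitation and 420 nm emission every 40 s over 30 min, with the substrate cleavage rate taken from the linear slope.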 In kind it is biochemical. The settings on record: 10 nM enzyme, 25 μM substrate WABC-6, pH 4.5, room temperature; read-out: IC50 (μM) BACE1.
For another data set, the target named is T1, human BACE2 (Homo sapiens, UniProt Q9Y5Z0).
T1 sequence (Q9Y5Z0 63-518): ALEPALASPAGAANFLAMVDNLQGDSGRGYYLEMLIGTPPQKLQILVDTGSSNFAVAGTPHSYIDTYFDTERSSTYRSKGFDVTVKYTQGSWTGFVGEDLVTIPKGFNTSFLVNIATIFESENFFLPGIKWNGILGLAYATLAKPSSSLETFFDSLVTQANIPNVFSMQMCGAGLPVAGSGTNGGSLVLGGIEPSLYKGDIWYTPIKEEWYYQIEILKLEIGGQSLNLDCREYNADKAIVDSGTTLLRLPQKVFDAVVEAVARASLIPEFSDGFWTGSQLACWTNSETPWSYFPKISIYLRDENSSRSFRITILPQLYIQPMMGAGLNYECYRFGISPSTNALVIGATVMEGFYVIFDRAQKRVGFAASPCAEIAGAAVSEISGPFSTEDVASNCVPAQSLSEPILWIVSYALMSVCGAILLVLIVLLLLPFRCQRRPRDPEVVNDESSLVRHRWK
The data set can be described thus: Fluorescent Kinetic Assay for Human Recombinant BACE 2 (selectivity BACE1/BACE2).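 Note: cleavage rate from the linear slope of fluorescence (excitation 320 nm, emission 420 nm) recorded every 40 s over 30 min at room temperature, sodium acetate buffer with 0.05% CHAPS.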 In kind it is biochemical. To be noted: selectivity BACE1 over BACE2; 1.5 nM human BACE2, 25 μM substrate, pH 4.5.

human BACE1, sequence (P56817 46-501): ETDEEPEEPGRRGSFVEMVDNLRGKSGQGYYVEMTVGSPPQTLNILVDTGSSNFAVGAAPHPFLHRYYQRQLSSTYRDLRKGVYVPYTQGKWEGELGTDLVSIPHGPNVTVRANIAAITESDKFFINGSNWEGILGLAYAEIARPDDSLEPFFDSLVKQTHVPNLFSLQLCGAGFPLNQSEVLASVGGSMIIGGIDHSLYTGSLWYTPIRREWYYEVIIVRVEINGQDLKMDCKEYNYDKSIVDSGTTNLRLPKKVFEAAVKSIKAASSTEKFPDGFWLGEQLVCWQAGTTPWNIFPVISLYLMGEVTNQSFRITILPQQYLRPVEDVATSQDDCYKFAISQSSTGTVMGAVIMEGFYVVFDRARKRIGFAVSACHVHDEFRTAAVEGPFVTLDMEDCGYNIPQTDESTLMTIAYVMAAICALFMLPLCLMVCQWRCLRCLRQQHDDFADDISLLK

In the case of `Cc1cc(C2(c3ccc(F)c(-c4cncnc4)c3)N=C(N)N(C)C2=O)ccc1OCCF` (stereo not drawn) [Example 113], the melting point was in the range of 108 to 110 °C. At human BACE1, the IC50 lay in the range of 0.01 to 0.1 µM. In addition, at human BACE2, the BACE1/BACE2 selectivity result was “I (I = >100-fold selectivity)”.
`Cc1cc(C2(c3cccc(-c4cncnc4)c3)N=C(N)N(C)C2=O)ccc1OCc1ccccc1` (stereo not drawn) [Example 114]: the melting point fell in the range of 107 to 109 °C. On human BACE1, the IC50 lay within 0.01 to 0.1 µM. In addition, at human BACE2, the BACE1/BACE2 selectivity entry is listed as “II (II = 10-100-fold selectivity)”.
Compound `Cc1cc(C2(c3cccc(-c4cncnc4)c3)N=C(N)N(C)C2=O)ccc1O` (stereo not drawn) [Example 115] yielded a melting point of 168 to 170 °C. In addition, at human BACE1, the IC50 is 0.01 to 0.1 µM. Further, the BACE1/BACE2 selectivity result at human BACE2 is reported as “II (II = 10-100-fold selectivity)”.
Compound `Cc1cc(C2(c3cccc(-c4cncnc4)c3)N=C(N)N(C)C2=O)ccc1OCCF` (stereo not drawn) [Example 116] registered a melting point of 108 to 110 °C. The IC50 on human BACE1 was in the range of 0.01 to 0.1 µM. Moreover, at human BACE2, the BACE1/BACE2 selectivity entry is “II (II = 10-100-fold selectivity)”.
As for `Cc1cc(C2(c3cccc(-c4cncnc4)c3)N=C(N)N(C)C2=O)ccc1OCC#N` (stereo not drawn) [Example 117], the melting point is 220 to 222 °C. Also, on human BACE1, the IC50 was 0.01 to 0.1 µM. Besides, the BACE1/BACE2 selectivity entry on human BACE2 was “II (II = 10-100-fold selectivity)”.
Take `Cc1cc(C2(c3cccc(-c4cncnc4)c3)N=C(N)N(C)C2=O)ccc1OC(C)C` (stereo not drawn) [Example 118]: the melting point was in the range of 101 to 103 °C. Also, on human BACE1, the IC50 was in the range of 0.01 to 0.1 µM. On human BACE2, the BACE1/BACE2 selectivity result is given as “I (I = >100-fold selectivity)”.
In turn, `CCOC(=O)COc1ccc(C2(c3cccc(-c4cncnc4)c3)N=C(N)N(C)C2=O)cc1C` (stereo not drawn) [Example 119] came in with a melting point of 105 to 107 °C. On human BACE1, the IC50 was 0.11 to 1 µM. The BACE1/BACE2 selectivity entry at human BACE2 was “II (II = 10-100-fold selectivity)”.
The compound `CCOc1ccc(C2(c3cccc(-c4cncnc4)c3)N=C(N)N(C)C2=O)cc1C` (stereo not drawn) [Example 120] gave a melting point of 106 to 108 °C. The IC50 at human BACE1 was 0.01 to 0.1 µM. Moreover, the BACE1/BACE2 selectivity result at human BACE2 was “I (I = >100-fold selectivity)”.
For `CCCOc1ccc(C2(c3cccc(-c4cncnc4)c3)N=C(N)N(C)C2=O)cc1C` (stereo not drawn) [Example 121], the melting point fell in the range of 102 to 104 °C. In addition, the IC50 at human BACE1 is 0.01 to 0.1 µM. In addition, at human BACE2, the BACE1/BACE2 selectivity result is on record as “II (II = 10-100-fold selectivity)”.
In turn, `Cc1cc(C2(c3cccc(-c4cncnc4)c3)N=C(N)N(C)C2=O)ccc1OCC(C)C` (stereo not drawn) [Example 122] gave a melting point of 103 to 105 °C. The IC50 at human BACE1 was 0.01 to 0.1 µM. In addition, the BACE1/BACE2 selectivity entry at human BACE2 is reported as “II (II = 10-100-fold selectivity)”.
Consider `Cc1cc(C2(c3cccc(-c4cncnc4)c3)N=C(N)N(C)C2=O)ccc1OCCCOc1ccccc1` (stereo not drawn) [Example 124], for which the melting point is 72 to 74 °C. Moreover, at human BACE1, the IC50 was in the range of 0.01 to 0.1 µM. Besides, on human BACE2, the BACE1/BACE2 selectivity entry is “II (II = 10-100-fold selectivity)”.
The like results for `CN1C(=S)C(c2ccc(OC(F)(F)F)cc2)(c2cccc(-c3cccnc3F)c2)N=C1N` (stereo not drawn) [Example 145, 2-Amino-5-[3-(2-fluoro-pyridin-3-yl)-phenyl]-3-methyl-5-(4-trifluoromethoxy-phenyl)-3,5-dihydro-imidazole-4-thione] were, in that order, 89 to 99 °C, 0.01 to 0.1 µM and “II (II = 10-100-fold selectivity)”.

A word on the IC50: it is the concentration that gives 50% inhibition. Usually melting point stands for the temperature, or range, at which the solid turns liquid.

Source of the values: patent US7700602B2, “Amino-5,5-diphenylimidazolone derivatives for the inhibition of β-secretase” (Wyeth LLC, priority 2004, dated 2010).
